Several values for one entry are separate records, joined by “and”; a condition that tells them apart may be missing. Equal values may be shown once.
The compounds below were run on mouse Mfsd2a (assay: Cell-based free fatty acid transport/uptake in Mfsd2a expressing HEK293 cells (mass spectrometry, TLC; Table 1)). Conditions: mock HEK293 cells incubated with 100 uM Arachidonic fatty acid/BSA complex overnight; MS; replicate columns.
Description: (§1) FIG. 12. […] Std: free [^14C]-DHA. b. TLC analysis of phospholipids and neutral lipids of HEK293 cells transfected with mouse Mfsd2a and mutants after overnight incubation with 100 μM [^14C]-oleate. TLC protocol used was described in Methods. PC: phosphatidylcholine, PE: phosphatidylethanolamine, TAG: triglyceride, CE: cholesteryl ester.
(§2) For tissue lipid analysis, brain, liver, and heart of female WT and KO mice with age of 7-8 weeks born to HET mothers, and brains from e18.5 embryos were collected and immediately frozen with liquid nitrogen until extraction. Lipid extraction was followed by chloroform/methanol method. For cell-based free fatty acid transport, lipids from HEK293 cells expressing mouse Mfsd2a and mock controls after overnight treatment with 100 μM docosahexaenoic, arachidonic, eicosapentaenoic, alpha-linolenic, linoleic, oleic, palmitic acids in BSA complex were extracted using HIP buffer (hexane:iso-propanol 3:2, per volume) and dried under N2 gas. Phospholipid species were measured by high performance liquid chromatography (HPLC) 1100 system (Agilent) coupled with an Triple Quadrupole/Ion Trap mass spectrometer (4000Qtrap, Applied Biosystem). Levels of individual phospholipid species were analyzed as described previously and quantified using spiked internal standards that includes PC-14:0/14:0, PE-14:0/14:0, PS-14:0/14:0 (Avanti Polar Lipids, Alabaster, Ala., USA), and dioctanoyl PI (Echelon Biosciences, Inc., Salt Lake City, Utah, USA).

SMILES	Amount of each lipid species, mol percent in total phospholipid analysed
CCCCCCCCCCCCCCCC(=O)OC[C@@H](O)COP(=O)([O-])OCC[N+](C)(C)C [LysoPC16:0]	0.02322 mol percent and 0.02517 mol percent and 0.02807 mol percent
CCCCCCCCCCCCCCCCOC[C@@H](O)COP(=O)([O-])OCC[N+](C)(C)C [LysoPC16:0e]	0.008219 mol percent and 0.01198 mol percent and 0.009457 mol percent
CCCCCCCCCCCCCCCCCC(=O)OC[C@@H](O)COP(=O)([O-])OCC[N+](C)(C)C [LysoPC18:0]	0.006849 mol percent and 0.006628 mol percent and 0.006426 mol percent

Same assay, conditions: mock HEK293 cells; 100 uM Docosahexaenoic acid/BSA complex overnight; MS; replicate columns

SMILES	Amount of each lipid species normalized to internal standard, mol percent in total phospholipid analysed
CCCCCCCCCCCCCCCC(=O)OC[C@@H](O)COP(=O)([O-])OCC[N+](C)(C)C [LysoPC16:0]	0.03115 mol percent and 0.02846 mol percent and 0.03055 mol percent
CCCCCCCCCCCCCCCCOC[C@@H](O)COP(=O)([O-])OCC[N+](C)(C)C [LysoPC16:0e]	0.005025 mol percent and 0.003881 mol percent and 0.00548 mol percent
CCCCCCCCCCCCCCCCCC(=O)OC[C@@H](O)COP(=O)([O-])OCC[N+](C)(C)C [LysoPC18:0]	0.008486 mol percent and 0.008947 mol percent and 0.009444 mol percent

Same assay, conditions: mock HEK293 cells; 100 uM Eicosapentaenoic acid/BSA complex overnight; MS; replicate columns

SMILES	Amount of each lipid species normalized to internal standard, mol percent in total phospholipid analysed
CCCCCCCCCCCCCCCC(=O)OC[C@@H](O)COP(=O)([O-])OCC[N+](C)(C)C [LysoPC16:0]	0.02508 mol percent and 0.02349 mol percent and 0.02482 mol percent
CCCCCCCCCCCCCCCCOC[C@@H](O)COP(=O)([O-])OCC[N+](C)(C)C [LysoPC16:0e]	0.00417 mol percent and 0.00451 mol percent and 0.003651 mol percent
CCCCCCCCCCCCCCCCCC(=O)OC[C@@H](O)COP(=O)([O-])OCC[N+](C)(C)C [LysoPC18:0]	0.006911 mol percent and 0.007615 mol percent and 0.006374 mol percent

Same assay, conditions: mock HEK293 cells; 100 uM Oleic fatty acid/BSA complex overnight; MS; replicate columns

SMILES	Amount of lipid species, mol percent in total phospholipid analysed
CCCCCCCCCCCCCCCC(=O)OC[C@@H](O)COP(=O)([O-])OCC[N+](C)(C)C [LysoPC16:0]	0.01539 mol percent and 0.01577 mol percent and 0.0163 mol percent
CCCCCCCCCCCCCCCCOC[C@@H](O)COP(=O)([O-])OCC[N+](C)(C)C [LysoPC16:0e]	0.003153 mol percent and 0.001998 mol percent and 0.003294 mol percent
CCCCCCCCCCCCCCCCCC(=O)OC[C@@H](O)COP(=O)([O-])OCC[N+](C)(C)C [LysoPC18:0]	0.005105 mol percent and 0.004638 mol percent and 0.005658 mol percent

The compounds below were run against T1, mouse Mfsd2a (Mus musculus, UniProt Q9DA75) in the same assay as above. Conditions: Mfsd2a expressing HEK293 cells incubated with 100 uM Arachidonic fatty acid/BSA complex overnight; MS; replicate columns.
T1 construct: expressed in transfected cells; host or cells: HEK293
T1 sequence (Q9DA75 1-534): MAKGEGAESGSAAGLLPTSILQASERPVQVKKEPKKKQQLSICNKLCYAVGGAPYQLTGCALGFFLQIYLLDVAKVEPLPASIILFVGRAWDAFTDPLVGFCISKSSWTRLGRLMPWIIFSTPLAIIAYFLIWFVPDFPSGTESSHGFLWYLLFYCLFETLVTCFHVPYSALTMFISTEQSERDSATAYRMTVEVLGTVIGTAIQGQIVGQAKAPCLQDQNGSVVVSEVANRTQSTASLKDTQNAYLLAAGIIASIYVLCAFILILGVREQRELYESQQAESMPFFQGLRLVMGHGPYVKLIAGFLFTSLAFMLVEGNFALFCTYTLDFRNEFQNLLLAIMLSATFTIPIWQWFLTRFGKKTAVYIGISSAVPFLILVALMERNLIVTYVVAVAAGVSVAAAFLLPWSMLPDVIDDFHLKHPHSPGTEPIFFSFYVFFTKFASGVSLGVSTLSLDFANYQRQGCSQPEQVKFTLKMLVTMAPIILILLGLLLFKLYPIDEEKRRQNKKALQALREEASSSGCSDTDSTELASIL
Description: as §1, §2

SMILES	Amount of each lipid species, mol percent in total phospholipid analysed
CCCCCCCCCCCCCCCC(=O)OC[C@@H](O)COP(=O)([O-])OCC[N+](C)(C)C [LysoPC16:0]	0.02415 mol percent and 0.0241 mol percent and 0.02855 mol percent and 0.02172 mol percent
CCCCCCCCCCCCCCCCOC[C@@H](O)COP(=O)([O-])OCC[N+](C)(C)C [LysoPC16:0e]	0.008218 mol percent and 0.00827 mol percent and 0.009441 mol percent and 0.01026 mol percent
CCCCCCCCCCCCCCCCCC(=O)OC[C@@H](O)COP(=O)([O-])OCC[N+](C)(C)C [LysoPC18:0]	0.006865 mol percent and 0.00639 mol percent and 0.005642 mol percent and 0.008281 mol percent

Same assay, conditions: Mfsd2a expressing HEK293 cells, 100 uM Alpha-linolenic fatty acid/BSA complex overnight; replicate columns

SMILES	Amount of lipid species, mol percent in total phospholipid analysed
CCCCCCCCCCCCCCCC(=O)OC[C@@H](O)COP(=O)([O-])OCC[N+](C)(C)C [LysoPC16:0]	0.02586 mol percent and 0.02533 mol percent and 0.02841 mol percent and 0.02293 mol percent
CCCCCCCCCCCCCCCCOC[C@@H](O)COP(=O)([O-])OCC[N+](C)(C)C [LysoPC16:0e]	0.004349 mol percent and 0.003802 mol percent and 0.005532 mol percent and 0.004823 mol percent
CCCCCCCCCCCCCCCCCC(=O)OC[C@@H](O)COP(=O)([O-])OCC[N+](C)(C)C [LysoPC18:0]	0.008875 mol percent and 0.009786 mol percent and 0.00943 mol percent and 0.009646 mol percent

Same assay, conditions: Mfsd2a expressing HEK293 cells, 100 uM Linoleic fatty acid/BSA complex overnight; replicate columns

SMILES	Amount of lipid species, mol percent in total phospholipid analysed
CCCCCCCCCCCCCCCC(=O)OC[C@@H](O)COP(=O)([O-])OCC[N+](C)(C)C [LysoPC16:0]	0.02176 mol percent and 0.01959 mol percent and 0.02134 mol percent and 0.02259 mol percent
CCCCCCCCCCCCCCCCOC[C@@H](O)COP(=O)([O-])OCC[N+](C)(C)C [LysoPC16:0e]	0.004905 mol percent and 0.004227 mol percent and 0.005291 mol percent and 0.006453 mol percent
CCCCCCCCCCCCCCCCCC(=O)OC[C@@H](O)COP(=O)([O-])OCC[N+](C)(C)C [LysoPC18:0]	0.006967 mol percent and 0.006454 mol percent and 0.007395 mol percent and 0.006903 mol percent

Same assay, conditions: Mfsd2a expressing HEK293 cells; 100 uM Docosahexaenoic acid/BSA complex overnight; MS; replicate columns

SMILES	Amount of each lipid species normalized to internal standard, mol percent in total phospholipid analysed
CCCCCCCCCCCCCCCC(=O)OC[C@@H](O)COP(=O)([O-])OCC[N+](C)(C)C [LysoPC16:0]	0.03726 mol percent and 0.03481 mol percent and 0.03081 mol percent and 0.02684 mol percent
CCCCCCCCCCCCCCCCOC[C@@H](O)COP(=O)([O-])OCC[N+](C)(C)C [LysoPC16:0e]	0.005111 mol percent and 0.004575 mol percent and 0.004499 mol percent and 0.004664 mol percent
CCCCCCCCCCCCCCCCCC(=O)OC[C@@H](O)COP(=O)([O-])OCC[N+](C)(C)C [LysoPC18:0]	0.009464 mol percent and 0.008616 mol percent and 0.009301 mol percent and 0.008257 mol percent

Same assay, conditions: Mfsd2a expressing HEK293 cells; 100 uM Eicosapentaenoic acid/BSA complex overnight; MS; replicate columns

SMILES	Amount of each lipid species normalized to internal standard, mol percent in total phospholipid analysed
CCCCCCCCCCCCCCCC(=O)OC[C@@H](O)COP(=O)([O-])OCC[N+](C)(C)C [LysoPC16:0]	0.02694 mol percent and 0.02534 mol percent and 0.02456 mol percent and 0.02331 mol percent
CCCCCCCCCCCCCCCCOC[C@@H](O)COP(=O)([O-])OCC[N+](C)(C)C [LysoPC16:0e]	0.005369 mol percent and 0.005332 mol percent and 0.003584 mol percent and 0.004376 mol percent
CCCCCCCCCCCCCCCCCC(=O)OC[C@@H](O)COP(=O)([O-])OCC[N+](C)(C)C [LysoPC18:0]	0.006896 mol percent and 0.007974 mol percent and 0.005812 mol percent and 0.007684 mol percent

Same assay, conditions: Mfsd2a expressing HEK293 cells; 100 uM Oleic fatty acid/BSA complex overnight; MS; replicate columns

SMILES	Amount of lipid species, mol percent in total phospholipid analysed
CCCCCCCCCCCCCCCC(=O)OC[C@@H](O)COP(=O)([O-])OCC[N+](C)(C)C [LysoPC16:0]	0.01777 mol percent and 0.01495 mol percent and 0.01595 mol percent and 0.01964 mol percent
CCCCCCCCCCCCCCCCOC[C@@H](O)COP(=O)([O-])OCC[N+](C)(C)C [LysoPC16:0e]	0.002972 mol percent and 0.00261 mol percent and 0.002228 mol percent and 0.001403 mol percent
CCCCCCCCCCCCCCCCCC(=O)OC[C@@H](O)COP(=O)([O-])OCC[N+](C)(C)C [LysoPC18:0]	0.005262 mol percent and 0.005101 mol percent and 0.005659 mol percent and 0.004823 mol percent

— patent US10175256B2, “Compositions and methods utilizing lysophosphatidylcholine scaffolds” (National University Of Singapore, priority 2013, dated 2019)
